Values after ≈ are worked out from the molar mass of the structure shown. Like-named read-outs stand apart in the source and are kept apart here.

This is an account of results in PMC3104272 (Journal of medicinal chemistry, 2011).

For series [1], the target named is T1, Falcipain 2 (Plasmodium falciparum, UniProt Q8I6U4).
T1 sequence (Q8I6U4 244-484): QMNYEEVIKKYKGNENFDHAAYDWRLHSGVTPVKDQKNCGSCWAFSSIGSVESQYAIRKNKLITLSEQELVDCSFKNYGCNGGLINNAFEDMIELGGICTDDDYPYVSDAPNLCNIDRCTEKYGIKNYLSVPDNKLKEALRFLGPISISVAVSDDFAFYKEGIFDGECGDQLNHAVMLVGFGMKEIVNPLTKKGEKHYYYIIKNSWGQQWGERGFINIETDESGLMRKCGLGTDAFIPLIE
In words: Falcipain 2 inhibition assay. Type of series: biochemical. To be noted: averages of duplicate determinations.

Series [2] deals with Chinese Hamster Ovarian (mammalian) cell line. In words: Cytotoxicity against Chinese Hamster Ovarian cell line. Particulars: highest concentration (100 µM) tested. Type of series: cell-based.
Series [3] can be described thus: In vitro metabolic stability, human liver microsomes. It counts as in vitro ADME. Particulars: calculated hepatic extraction ratio.
Series [4] in a line: In vitro metabolic stability, mouse liver microsomes. It counts as in vitro ADME. Particulars: calculated hepatic extraction ratio.
Series [5] can be described thus: Solubility estimates. It counts as physicochemical. Particulars: for Solubility pH 2.0: 0.01M HCl (approximately pH 2.0).
For series [6] the following is noted: NADPH and UDPGA relative to NADPH alone; putative P + 176 metabolite.
Series [7] has as its system P. falciparum chloroquine sensitive strain D10. In words: In vitro antiplasmodial activity, D10 strain. To be noted: Plasmodium falciparum, D10, read-out: IC50, D10. Type of series: cell-based.
For series [8], the system named is P. falciparum chloroquine resistant strain Dd2. Nature of the series: In vitro antiplasmodial activity, Dd2 strain. Particulars: Plasmodium falciparum, DD2, read-out: IC50, Dd2. It counts as cell-based.
The subject of series [9] is P. falciparum chloroquine resistant strain W2. In words: In vitro antiplasmodial activity, W2 strain. It counts as cell-based. To be noted: Plasmodium falciparum, W2, read-out: IC50, W2.
In series [10] the test system is Chinese Hamster Ovarian (mammalian) cell line. Particulars: previously reported finding; cited from earlier work.

On to `COc1ccc(C(=O)/C=C/c2ccc(O)c(CN3CCN(c4ccnc5cc(Cl)ccc45)CC3)c2)c(OC)c1` [Compound 27, 3-{3-[4-(7-Chloro-quinolin-4-yl)-piperazin-1-ylmethyl]-4-hydroxy-phenyl}-1-(2,4-dimethoxy-phenyl)-propenone], for which the “Falcipain 2 (IC50)” value in series [1] is reported as “lower micromolar IC50 values”. Besides, the Cytotoxicity result in [2] is recorded as “No cytotoxicity was observed”.
In the case of `COc1cc(/C=C/C(C)=O)ccc1OCCNc1ccnc2cc(Cl)ccc12` [Compound 20, 4-{4-[2-(7-Chloro-quinolin-4-ylamino)-ethoxy]-3-methoxy-phenyl}-but-3-en-2-one], the “Microsome-Predicted Extraction ratio (EH), Human” value in [3] is reported as 0.90. The “Microsome-Predicted Extraction ratio (EH), Mouse” value in series [4] is recorded as 0.85. The solubility – broadly, the concentration that dissolves in the medium under given conditions – is 50 to 100 µg/mL (≈ 126 to 252 µM) in series [5] (0.01M HCl, pH 2) and 6.3 to 12.5 µg/mL (≈ 15.9 to 31.5 µM) in [5] (phosphate buffer, pH 6.5). Moreover, the “Solubility pH 6.5” value in series [5] (pH 6.5 phosphate buffer, 1% DMSO) is given as “moderate solubility”. Also, the “Falcipain 2 (IC50)” value in [1] was “relatively low potencies”. Besides, the Primary glucuronidation entry in series [6] was “no major increase in the rate of degradation”.
As for `CC(=O)/C=C/c1ccc(O)c(CN2CCN(c3ccnc4cc(Cl)ccc34)CC2)c1` [Compound 26, 4-{3-[4-(7-Chloro-quinolin-4-yl)-piperazin-1-ylmethyl]-4-hydroxy-phenyl}-but-3-en-2-one], the “Microsome-Predicted Extraction ratio (EH), Human” value in [3] was 0.93. Further, in series [4], the “Microsome-Predicted Extraction ratio (EH), Mouse” value is recorded as 0.84. Further, the “Falcipain 2 (IC50)” value in [1] was “lower micromolar IC50 values”.
`COc1cc(/C=C/C(C)=O)cc(CN2CCN(c3ccnc4cc(Cl)ccc34)CC2)c1O` [Compound 24, 4-{3-[4-(7-Chloro-quinolin-4-yl)-piperazin-1-ylmethyl]-4-hydroxy-5-methoxyphenyl}-but-3-en-2-one]: the “Microsome-Predicted Extraction ratio (EH), Human” value in series [3] is reported as 0.85. Also, the “Microsome-Predicted Extraction ratio (EH), Mouse” value in [4] is recorded as 0.84. In addition, the solubility in series [5] (phosphate buffer, pH 6.5) was 1.6 to 3.1 µg/mL (≈ 3.54 to 6.86 µM). Also, the “Falcipain 2 (IC50)” value in [1] is recorded as “relatively low potencies”.
For `CCN(CC)CCCC(C)Nc1ccnc2cc(Cl)ccc12` (stereo not drawn) [Chloroquine], the IC50 (usually the midpoint of a concentration-inhibition curve) came out at 17 nM in [7], 97 nM in series [8] and 69 nM in series [9]. The Primary glucuronidation result in series [6] is recorded as “no major increase in the rate of degradation”.
For the molecule `COc1cc(/C=C/C(C)=O)ccc1OCCN1CCN(c2ccnc3cc(Cl)ccc23)CC1` [Compound 22, 4-(4-{2-[4-(7-Chloro-quinolin-4-yl)-piperazin-1-yl]-ethoxy}-3-methoxy-phenyl)-but-3-en-2-one], in series [5] (phosphate buffer, pH 6.5), the solubility was 1.6 to 3.1 µg/mL (≈ 3.43 to 6.65 µM). In [1], the “Falcipain 2 (IC50)” value is “relatively low potencies”. In series [6], the Primary glucuronidation result was “no putative metabolites detected with molecular weights consistent with glucuronidation”.
In the case of `COc1ccc(C(=O)/C=C/c2ccc(OCCNc3ccnc4cc(Cl)ccc34)c(OC)c2)c(OC)c1` [Compound 21, 3-{4-[2-(7-Chloro-quinolin-4-ylamino)-ethoxy]-3-methoxy-phenyl}-1-(2,4-dimethoxy-phenyl)-propenone], in series [3], the “Microsome-Predicted Extraction ratio (EH), Human” value was 0.85. In addition, in series [4], the “Microsome-Predicted Extraction ratio (EH), Mouse” value is reported as 0.86. Also, the solubility in [5] (phosphate buffer, pH 6.5) was 3.1 to 6.3 µg/mL (≈ 5.97 to 12.1 µM). For the same molecule, in series [1], the “Falcipain 2 (IC50)” value was “lower micromolar IC50 values”. Further, the Primary glucuronidation entry in series [6] was “no major increase in the rate of degradation”.
Turning to `COc1ccc(C(=O)/C=C/c2cc(CN3CCN(c4ccnc5cc(Cl)ccc45)CC3)c(O)c(OC)c2)c(OC)c1` [Compound 25, 3-{3-[4-(7-Chloro-quinolin-4-yl)-piperazin-1-ylmethyl]-4-hydroxy-5-methoxyphenyl}-1-(2,4-dimethoxy-phenyl)-propenone], the “Microsome-Predicted Extraction ratio (EH), Human” value in series [3] is recorded as 0.72. Besides, the “Microsome-Predicted Extraction ratio (EH), Mouse” value in series [4] was 0.87. In series [1], the “Falcipain 2 (IC50)” value is recorded as “lower micromolar IC50 values”. Moreover, the Cytotoxicity entry in series [2] was “No cytotoxicity was observed”.
As for `COc1cc(/C=C/C(C)=O)ccc1OCc1cn(-c2ccnc3cc(Cl)ccc23)nn1` [Compound 12], the “Solubility pH 2.0” value in [5] (1% DMSO) is listed as “no increase in solubility under acidic conditions”. The solubility was 3.1 to 6.3 µg/mL (≈ 7.13 to 14.5 µM) in series [5] (0.01M HCl, pH 2) and 3.1 to 6.3 µg/mL (≈ 7.13 to 14.5 µM) in series [5] (phosphate buffer, pH 6.5). In series [6], the Primary glucuronidation result is given as “no putative metabolites detected with molecular weights consistent with glucuronidation”.
Regarding `COc1ccc(C(=O)/C=C/c2ccc(OCCN3CCN(c4ccnc5cc(Cl)ccc45)CC3)c(OC)c2)c(OC)c1` [Compound 23, 3-(4-{2-[4-(7-Chloro-quinolin-4-yl)-piperazin-1-yl]-ethoxy}-3-methoxy-phenyl)-1-(2,4-dimethoxy-phenyl)-propenone], the “Falcipain 2 (IC50)” value in series [1] was “lower micromolar IC50 values”. Also, the Primary glucuronidation entry in series [6] is listed as “no major increase in the rate of degradation”.
Take `COc1ccc(C(=O)/C=C/c2ccc(OCc3cn(-c4ccnc5cc(Cl)ccc45)nn3)c(OC)c2)c(OC)c1` [Compound 8b]: the “Solubility pH 2.0” value in series [5] (1% DMSO) is on record as “no increase in solubility under acidic conditions”. The “Falcipain 2 (IC50)” value in series [1] was “lower micromolar IC50 values”. Moreover, the Cytotoxicity result in series [10] was “No cytotoxicity was observed”. Moreover, the Primary glucuronidation entry in series [6] was “no major increase in the rate of degradation”.
